Measured values published in publication PMC5700043, “Structural insights into substrate and inhibitor binding sites in human indoleamine 2,3-dioxygenase 1” (Nature Communications, 2017).

Assays:
[1] = molecular target: T1, human indoleamine 2,3-dioxygenase 1 (hIDO1) (Homo sapiens, UniProt P14902); experiment: X-ray crystal structure ([…] Å); activity titration; format: biochemical
T1 construct: gene IDO1

[2] = molecular target: T2, human indoleamine 2,3-dioxygenase 1 (hIDO1) (Homo sapiens, UniProt P14902, F270G); experiment: X-ray crystal structure ([…] Å); activity titration (inhibition); format: biochemical
T2 construct: gene IDO1

[3] = molecular target: T2, human indoleamine 2,3-dioxygenase 1 (hIDO1); experiment: X-ray crystal structure ([…] Å), two Trp bound; steady-state activity; format: binding
[4] = molecular target: T1, human indoleamine 2,3-dioxygenase 1 (hIDO1); experiment: X-ray crystal structure ([…] Å); steady-state activity; format: binding

T2 sequence (P14902 11-403 F270G): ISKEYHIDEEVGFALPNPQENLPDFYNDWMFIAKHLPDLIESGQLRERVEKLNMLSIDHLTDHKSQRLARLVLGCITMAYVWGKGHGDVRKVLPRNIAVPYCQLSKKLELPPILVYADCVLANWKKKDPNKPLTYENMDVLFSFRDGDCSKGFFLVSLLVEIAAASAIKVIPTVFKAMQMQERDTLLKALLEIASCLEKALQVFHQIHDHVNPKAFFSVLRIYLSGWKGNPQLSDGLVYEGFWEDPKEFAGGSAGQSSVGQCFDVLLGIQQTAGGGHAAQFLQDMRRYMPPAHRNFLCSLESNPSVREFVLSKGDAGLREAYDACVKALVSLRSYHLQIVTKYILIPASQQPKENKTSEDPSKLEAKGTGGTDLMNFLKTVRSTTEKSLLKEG
T1 sequence (P14902 whole entry): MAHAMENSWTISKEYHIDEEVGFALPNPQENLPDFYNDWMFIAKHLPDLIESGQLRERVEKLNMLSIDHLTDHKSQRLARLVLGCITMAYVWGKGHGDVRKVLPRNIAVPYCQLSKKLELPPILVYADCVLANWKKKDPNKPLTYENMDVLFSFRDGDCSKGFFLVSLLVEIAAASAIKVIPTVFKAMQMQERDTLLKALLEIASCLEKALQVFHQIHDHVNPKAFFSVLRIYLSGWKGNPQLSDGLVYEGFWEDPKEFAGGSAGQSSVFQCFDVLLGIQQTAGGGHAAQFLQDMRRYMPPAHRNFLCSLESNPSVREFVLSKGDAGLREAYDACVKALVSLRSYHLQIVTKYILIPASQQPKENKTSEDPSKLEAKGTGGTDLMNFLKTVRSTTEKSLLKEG

OCCc1c[nH]c2ccccc12 [IDE, 3-indole ethanol]
Kd [1]: ~230 µM | Kd [2]: ~100 µM

N[C@@H](Cc1c[nH]c2ccccc12)C(=O)O [Trp]
X-ray crystal structure (3.03 Å), two Trp bound; steady-state activity [3]: Crystal structure of the F270G-CN-Trp complex in a two Trp-bound state, where both the Sa and Si sites are occupied | X-ray crystal structure (2.40 Å); steady-state activity [4]: The substrate Trp binds in the distal heme pocket, which is enclosed by the JK-Loop^C and the DE-Loop
